According to the supplement of paper PMC10307832:

What was measured:
Assay in all cases: relative viability (nuclei count vs DMSO), 5 days (fraction); higher = more cells survive
A-427 = tested on: A-427
In short: (§1)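 One day after seeding in 1536-well plates, lung cancer cell lines were dosed by pin tool. Dosing was either single-drug or a fixed anchor-drug dose plus five library-drug doses (not always all listed) in √10 steps. After 5 days, nuclei were stained in one fix-and-stain step and counted on 4× images, and relative viability is the nuclei count of treated wells over that of vehicle wells, given as the median of duplicate plates.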

COR-L 105 = tested on: COR-L 105
In short: as §1

ChaGo-K-1 = tested on: ChaGo-K-1
In short: as §1

EKVX = tested on: EKVX
In short: as §1

EMC-BAC-2 = tested on: EMC-BAC-2
In short: as §1

EPLC-272H = tested on: EPLC-272H
In short: as §1

HARA = tested on: HARA
In short: as §1

HCC-44 = tested on: HCC-44
In short: as §1

LK-2 = tested on: LK-2
In short: as §1

LU99A = tested on: LU99A
In short: as §1

NCI-H1650 = tested on: NCI-H1650
In short: as §1

NCI-H1734 = tested on: NCI-H1734
In short: as §1

NCI-H1755 = tested on: NCI-H1755
In short: as §1

NCI-H1792 = tested on: NCI-H1792
In short: as §1

NCI-H1993 = tested on: NCI-H1993
In short: as §1

NCI-H2405 = tested on: NCI-H2405
In short: as §1

NCI-H358 = tested on: NCI-H358
In short: as §1

NCI-H460 = tested on: NCI-H460
In short: as §1

NCI-H522 = tested on: NCI-H522
In short: as §1

NCI-H596 = tested on: NCI-H596
In short: as §1

NCI-H647 = tested on: NCI-H647
In short: as §1

RERF-LC-KJ = tested on: RERF-LC-KJ
In short: as §1

SW 900 = tested on: SW 900
In short: as §1

Cc1csc(=NC2CCCCC2)n1/N=C/c1ccc(O)c(O)c1O [MIM1] + Nc1nc2[nH]cc(CCc3ccc(C(=O)N[C@@H](CCC(=O)O)C(=O)O)cc3)c2c(=O)[nH]1 [Pemetrexed] (partner 0.2 µM)
relative viability (A-427; first compound 0.2 µM): 1.02
relative viability (A-427; first compound 0.6325 µM): 0.947
relative viability (A-427; first compound 2 µM): 0.989
relative viability (A-427; first compound 6.325 µM): 0.901
relative viability (A-427; first compound 20 µM): 0.343
relative viability (COR-L 105; first compound 0.2 µM): 1.02
relative viability (COR-L 105; first compound 0.6325 µM): 1.13
relative viability (COR-L 105; first compound 2 µM): 0.882
relative viability (COR-L 105; first compound 6.325 µM): 0.933
relative viability (COR-L 105; first compound 20 µM): 1.04
relative viability (ChaGo-K-1; first compound 0.2 µM): 0.255
relative viability (ChaGo-K-1; first compound 0.6325 µM): 0.269
relative viability (ChaGo-K-1; first compound 2 µM): 0.263
relative viability (ChaGo-K-1; first compound 6.325 µM): 0.257
relative viability (ChaGo-K-1; first compound 20 µM): 0.189
relative viability (EKVX; first compound 0.2 µM): 0.374
relative viability (EKVX; first compound 0.6325 µM): 0.392
relative viability (EKVX; first compound 2 µM): 0.318
relative viability (EKVX; first compound 6.325 µM): 0.287
relative viability (EKVX; first compound 20 µM): 0.29
relative viability (EMC-BAC-2; first compound 0.2 µM): 0.421
relative viability (EMC-BAC-2; first compound 0.6325 µM): 0.436
relative viability (EMC-BAC-2; first compound 2 µM): 0.432
relative viability (EMC-BAC-2; first compound 6.325 µM): 0.448
relative viability (EMC-BAC-2; first compound 20 µM): 0.354
relative viability (EPLC-272H; first compound 0.2 µM): 0.328
relative viability (EPLC-272H; first compound 0.6325 µM): 0.372
relative viability (EPLC-272H; first compound 2 µM): 0.27
relative viability (EPLC-272H; first compound 6.325 µM): 0.157
relative viability (EPLC-272H; first compound 20 µM): 0.166
relative viability (HARA; first compound 0.2 µM): 0.22
relative viability (HARA; first compound 0.6325 µM): 0.261
relative viability (HARA; first compound 2 µM): 0.237
relative viability (HARA; first compound 6.325 µM): 0.234
relative viability (HARA; first compound 20 µM): 0.149
relative viability (HCC-44; first compound 0.2 µM): 0.689
relative viability (HCC-44; first compound 0.6325 µM): 0.566
relative viability (HCC-44; first compound 2 µM): 0.601
relative viability (HCC-44; first compound 6.325 µM): 0.468
relative viability (HCC-44; first compound 20 µM): 0.401
relative viability (LK-2; first compound 0.2 µM): 0.276
relative viability (LK-2; first compound 0.6325 µM): 0.298
relative viability (LK-2; first compound 2 µM): 0.197
relative viability (LK-2; first compound 6.325 µM): 0.272
relative viability (LK-2; first compound 20 µM): 0.218
relative viability (LU99A; first compound 0.2 µM): 0.178
relative viability (LU99A; first compound 0.6325 µM): 0.193
relative viability (LU99A; first compound 2 µM): 0.175
relative viability (LU99A; first compound 6.325 µM): 0.17
relative viability (LU99A; first compound 20 µM): 0.16
relative viability (NCI-H1650; first compound 0.2 µM): 0.341
relative viability (NCI-H1650; first compound 0.6325 µM): 0.393
relative viability (NCI-H1650; first compound 2 µM): 0.363
relative viability (NCI-H1650; first compound 6.325 µM): 0.191
relative viability (NCI-H1650; first compound 20 µM): 0.202
relative viability (NCI-H1734; first compound 0.2 µM): 0.424
relative viability (NCI-H1734; first compound 0.6325 µM): 0.448
relative viability (NCI-H1734; first compound 2 µM): 0.478
relative viability (NCI-H1734; first compound 6.325 µM): 0.412
relative viability (NCI-H1734; first compound 20 µM): 0.179
relative viability (NCI-H1755; first compound 0.2 µM): 0.377
relative viability (NCI-H1755; first compound 0.6325 µM): 0.419
relative viability (NCI-H1755; first compound 2 µM): 0.41
relative viability (NCI-H1755; first compound 6.325 µM): 0.41
relative viability (NCI-H1755; first compound 20 µM): 0.269
relative viability (NCI-H1792; first compound 0.2 µM): 0.682
relative viability (NCI-H1792; first compound 0.6325 µM): 0.644
relative viability (NCI-H1792; first compound 2 µM): 1.02
relative viability (NCI-H1792; first compound 6.325 µM): 0.716
relative viability (NCI-H1792; first compound 20 µM): 0.685
relative viability (NCI-H1993; first compound 0.2 µM): 0.572
relative viability (NCI-H1993; first compound 0.6325 µM): 0.553
relative viability (NCI-H1993; first compound 2 µM): 0.596
relative viability (NCI-H1993; first compound 6.325 µM): 0.481
relative viability (NCI-H1993; first compound 20 µM): 0.384
relative viability (NCI-H2405; first compound 0.2 µM): 0.945
relative viability (NCI-H2405; first compound 0.6325 µM): 0.98
relative viability (NCI-H2405; first compound 2 µM): 1.17
relative viability (NCI-H2405; first compound 6.325 µM): 0.752
relative viability (NCI-H2405; first compound 20 µM): 0.584
relative viability (NCI-H358; first compound 0.2 µM): 0.181
relative viability (NCI-H358; first compound 0.6325 µM): 0.17
relative viability (NCI-H358; first compound 2 µM): 0.182
relative viability (NCI-H358; first compound 6.325 µM): 0.152
relative viability (NCI-H358; first compound 20 µM): 0.144
relative viability (NCI-H460; first compound 0.2 µM): 0.0717
relative viability (NCI-H460; first compound 0.6325 µM): 0.0675
relative viability (NCI-H460; first compound 2 µM): 0.0683
relative viability (NCI-H460; first compound 6.325 µM): 0.0681
relative viability (NCI-H460; first compound 20 µM): 0.0657
relative viability (NCI-H522; first compound 0.2 µM): 1.09
relative viability (NCI-H522; first compound 0.6325 µM): 1.31
relative viability (NCI-H522; first compound 2 µM): 0.951
relative viability (NCI-H522; first compound 6.325 µM): 1.01
relative viability (NCI-H522; first compound 20 µM): 0.481
relative viability (NCI-H596; first compound 0.2 µM): 0.608
relative viability (NCI-H596; first compound 0.6325 µM): 0.537
relative viability (NCI-H596; first compound 2 µM): 0.536
relative viability (NCI-H596; first compound 6.325 µM): 0.512
relative viability (NCI-H596; first compound 20 µM): 0.471
relative viability (NCI-H647; first compound 0.2 µM): 0.187
relative viability (NCI-H647; first compound 0.6325 µM): 0.186
relative viability (NCI-H647; first compound 2 µM): 0.178
relative viability (NCI-H647; first compound 6.325 µM): 0.162
relative viability (NCI-H647; first compound 20 µM): 0.117
relative viability (RERF-LC-KJ; first compound 0.2 µM): 0.47
relative viability (RERF-LC-KJ; first compound 0.6325 µM): 0.466
relative viability (RERF-LC-KJ; first compound 2 µM): 0.369
relative viability (RERF-LC-KJ; first compound 6.325 µM): 0.361
relative viability (RERF-LC-KJ; first compound 20 µM): 0.165
relative viability (SW 900; first compound 0.2 µM): 0.504
relative viability (SW 900; first compound 0.6325 µM): 0.465
relative viability (SW 900; first compound 2 µM): 0.499
relative viability (SW 900; first compound 6.325 µM): 0.349
relative viability (SW 900; first compound 20 µM): 0.178
